Test results from publication PMC7083565, “In vitro metabolism, reaction phenotyping, enzyme kinetics, CYP inhibition and induction potential of ataluren” (Pharmacology Research & Perspectives, 2020).
Like-named read-outs stand apart in the source and are kept apart here.

Legend:
[1] = Ataluren glucuronidation kinetics, human liver microsomes; assay type: in vitro ADME; conditions: for CLint,u,UGT (scaled) / K m / K m, u / V max: HLM; for CLint,u,UGT (scaled): 40.0 mg protein/g tissue; for K m / K m, u / V max: mean ± SE; for K m / K m, u / V max / fraction unbound at 15 min: n = 3; for fraction unbound at 15 min: human, pooled human liver microsomes incubation mixture, pH 7.5, HLM, mean ± SD, read-out: fu,inc
Description: (§1) Ataluren at 0.5, 2.5, 12.5, 25, 50, 100, 200, and 400 µmol/L, was incubated (n = 3) at 37°C with recombinant human UGT1A9 and with pooled microsomes from human liver, kidney, and intestine (0.025 mg protein/mL, preactivated with alamethicin at 20 µg/mL) in Tris‐HCl buffer (0.1 mol/L, pH 7.5), in the presence of 1 mmol/L EDTA, 5 mmol/L MgCl2, with or without 0.5%, 1%, or 2% BSA. The incubation (100 µL final volume with 0.5% DMSO) was started by adding an equal volume of UDPGA (5 mmol/L) in Tris‐HCl buffer (0.1 mol/L, pH 7.5). After 30 minutes incubation, the incubation mixtures were combined with 0.3 mL of an internal standard solution in acetonitrile with 1% formic acid, followed by membrane plate filtration. The filtrates were used for LC‐MS/MS analysis to quantify the formation of ataluren‐O‐1β‐acyl glucuronide. Detailed LC‐MS/MS conditions are summarized in LC‐MS/MS Analysis section. Ataluren acyl glucuronide formation rate after 30 minutes incubation was calculated using the amount of metabolite formed (pmol) divided by the protein amount in the incubation sample (0.0025 mg) and the incubation time (30 minutes). Ataluren glucuronidation kinetic parameters were determined with and without adjusting BSA binding by nonlinear regression (GraphPad Prism, 5version 5.04, GraphPad Software, Inc.) using Michaelis‐Menten equation which was the best fit compared with other models. The intrinsic clearance was calculated as CLint = Vmax/Km. In order to compare unbound intrinsic clearance by glucuronidation (CLint,u,UGT) in different tissues, CLint,u,UGT was expressed per gram of tissue by correcting the values for the microsomal protein yield, resulting in scaled CLint,u,UGT. Microsomal protein yields of 40.0, 12.8, and 20.6 mg protein/g tissue were used for hepatic, renal, and intestinal data, respectively. ^26
(§2) The high‐throughput membrane ultrafiltration method ^27 was used to determine the fraction unbound in the incubation (n = 3). Incubation mixtures and procedures were essentially the same as the above except that UDPGA (5 mmol/L) was replaced with Tris‐HCl buffer (0.1 mol/L, pH 7.5). After 15 minutes incubation, aliquot was transferred to a Millipore Multiscreen Ultracel‐10 filter plate (10 kDa molecular mass cut off; EMD Millipore). The plate was centrifuged at 37°C and 3710 g. After 30 minutes centrifugation, aliquots of ultrafiltrates and incubation mixtures prior to ultrafiltration were quenched with an internal standard solution in acetonitrile, followed by membrane plate filtration. The filtrates were used for LC‐MS/MS analysis to quantify the concentration of ataluren. The same LC‐MS/MS conditions described above are summarized in LC‐MS/MS Analysis section. The free fraction = Cu/Cm, where Cu is the concentration of ataluren in the ultrafiltrate and Cm is the concentration of ataluren in the incubation system before centrifugation. Unbound Km (Km, u) was recalculated by applying Michaelis‐Menten equation using free ataluren concentrations after correcting BSA binding at each ataluren and BSA concentration level.
(§3) Quantification of ataluren‐O‐1β‐acyl glucuronide formation was conducted on an Accela pump and a PAL autosampler equipped with a TSQ Quantum Ultra mass spectrometer (Thermo Fisher Scientific). A Waters Acquity BEH column (C18, 1.7 µm, 50 × 2.1 mm; Waters Cooperation) was used and maintained at 50°C. The mobile phases were 0.1% formic acid in water (A) and acetonitrile (B). The flow rate was 0.6 mL/min and gradient program was as follows: linear gradient from 0% B to 95% B in 0.5 minutes and hold isocratic at 95% B for 1 minute; linear gradient from 95% B to 0% B in 0.1 minutes and hold isocratic at 0% B for 0.4 minutes. TSQ Quantum Ultra mass spectrometer was equipped with a heated electrospray ionization source operated in negative‐ion mode with a vaporizer temperature of 350°C, capillary temperature of 380°C, and spray voltage of 3 kV. […]

UGT (glucuronidation) = assay: as above; assay type: in vitro ADME; conditions: human, pooled human liver microsomes, pH 7.5, HLM, read-out: CLint,u,UGT
Description: as §1, §2, §3

CYP2C9 = target: T1, CYP2C9 (Homo sapiens, UniProt P11712); assay: CYP inhibition in pooled human liver microsomes: CYP2C9; assay type: in vitro ADME
T1 construct: tissue XenoTech LLC, Celsis-In Vitro Technologies, or Tissue Transformation Technologies; host or cells: pooled human liver microsomes
T1 sequence (P11712 whole entry): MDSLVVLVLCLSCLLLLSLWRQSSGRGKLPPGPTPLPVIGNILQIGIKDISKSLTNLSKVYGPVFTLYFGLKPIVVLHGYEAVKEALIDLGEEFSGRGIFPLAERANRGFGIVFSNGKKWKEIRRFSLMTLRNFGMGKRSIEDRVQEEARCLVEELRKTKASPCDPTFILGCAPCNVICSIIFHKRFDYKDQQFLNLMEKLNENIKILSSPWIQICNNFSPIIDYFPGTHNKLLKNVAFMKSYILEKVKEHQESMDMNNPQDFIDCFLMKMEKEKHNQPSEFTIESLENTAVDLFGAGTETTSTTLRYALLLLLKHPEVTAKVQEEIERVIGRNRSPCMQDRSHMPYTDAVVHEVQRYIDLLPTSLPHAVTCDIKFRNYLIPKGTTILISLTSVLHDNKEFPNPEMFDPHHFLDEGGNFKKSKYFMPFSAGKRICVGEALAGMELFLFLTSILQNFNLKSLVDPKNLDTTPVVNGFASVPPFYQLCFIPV
Description: The final concentration of each probe substrate was near the experimentally determined Km value for the indicated enzyme. Ataluren or prototypical CYP inhibitors (positive controls) was incubated (n = 3) with probe substrates and HLM in 100 mmol/L phosphate buffer (pH 7.4) in a total volume of approximately 0.25 mL, and the reactions were initiated by the addition of 1 mmol/L NADPH at 37°C. The reactions were carried out using previously established conditions to ensure linearity with respect to protein concentration and incubation time (Table S1). Incubations were stopped with the addition of ice‐cold acetonitrile. Metabolite formation in incubations with test compound and control inhibitors was assessed with LC‐MS/MS methods for each of the reaction products as described in Table S2. […] After 7 minutes incubation at 37°C, the reaction was stopped by the addition of ice‐cold acetonitrile, followed by membrane plate filtration. The filtrates were used for LC‐MS/MS analysis. Enzyme activity remaining at each nonzero ataluren concentration after incubation was normalized against control sample (zero ataluren concentration, enzyme activity = 100%), and the % remaining enzyme activity values were used for IC50 calculation. IC50 values were determined by nonlinear regression with GraphPad Prism 5 using the following four‐parameter sigmoidal‐logistic IC50 equation: Fit=background+range-background/[1+I/IC50^slope]
Where, I is the inhibitor concentration, and background was set to 0 and range to 100, as percent of control values are utilized. K i was determined by nonlinear regression with GraphPad Prism 5 using best fit model.

[2] = Steady-state plasma Cmax in DMD patients; assay type: in vivo, human

**Q.** With `O=C(O)c1cccc(-c2noc(-c3ccccc3F)n2)c1` [ataluren, Ataluren] as the molecule, how does the “CLint,u,UGT (scaled)” value ([1]; 0% BSA) read?
**A.** 1.61 mL/min/g of tissue

**Q.** What about the K m ([1]; 0% BSA) of the same molecule?
**A.** 29.9 ± 4.49 µmol/L

**Q.** And the “K m, u” value ([1]; 0% BSA)?
**A.** 29.9 ± 4.49 µmol/L

**Q.** And the V max ([1]; 0% BSA)?
**A.** 1204 ± 49.0 pmol/min/mg

**Q.** What about the “CLint,u,UGT (scaled)” value ([1]; 0.5% BSA) of the same molecule?
**A.** 13.0 mL/min/g of tissue

**Q.** What about the K m ([1]; 0.5% BSA) of the same molecule?
**A.** 54.3 ± 9.42 µmol/L

**Q.** What about the “K m, u” value ([1]; 0.5% BSA) of the same molecule?
**A.** 4.50 ± 0.748 µmol/L

**Q.** What about the V max ([1]; 0.5% BSA) of the same molecule?
**A.** 1465 ± 68.2 pmol/min/mg

**Q.** What about the “CLint,u,UGT (scaled)” value ([1]; 1% BSA) of the same molecule?
**A.** 16.9 mL/min/g of tissue

**Q.** And the K m ([1]; 1% BSA)?
**A.** 67.9 ± 9.19 µmol/L

**Q.** What about the “K m, u” value ([1]; 1% BSA) of the same molecule?
**A.** 3.00 ± 0.415 µmol/L

**Q.** What about the V max ([1]; 1% BSA) of the same molecule?
**A.** 1264 ± 53.5 pmol/min/mg

**Q.** What about the “CLint,u,UGT (scaled)” value ([1]; 2% BSA) of the same molecule?
**A.** 12.5 mL/min/g of tissue

**Q.** And the K m ([1]; 2% BSA)?
**A.** 108 ± 10.7 µmol/L

**Q.** And the “K m, u” value ([1]; 2% BSA)?
**A.** 2.83 ± 0.315 µmol/L

**Q.** And the V max ([1]; 2% BSA)?
**A.** 886 ± 34.7 pmol/min/mg

**Q.** And the “maximal effect of BSA on CLint,u (increase)” value ([1]; human liver microsomes, with vs without BSA)?
**A.** ~10 fold

**Q.** And the fraction unbound at 15 min ([1]; 0% BSA)?
**A.** 1 ± 0.12

**Q.** What about the fraction unbound at 15 min ([1]; 0.5% BSA) of the same molecule?
**A.** 0.093 ± 0.006

**Q.** And the fraction unbound at 15 min ([1]; 1% BSA)?
**A.** 0.05 ± 0.007

**Q.** And the fraction unbound at 15 min ([1]; 2% BSA)?
**A.** 0.03 ± 0.005

**Q.** What about the microsomal CLint (UGT (glucuronidation); 0% BSA) of the same molecule?
**A.** 40.3 µL/min/mg

**Q.** And the microsomal CLint (UGT (glucuronidation); 0.5% BSA)?
**A.** 326 µL/min/mg

**Q.** And the microsomal CLint (UGT (glucuronidation); 1% BSA)?
**A.** 421 µL/min/mg

**Q.** What about the microsomal CLint (UGT (glucuronidation); 2% BSA) of the same molecule?
**A.** 313 µL/min/mg

**Q.** And the Ki (CYP2C9; CYP2C9, competitive, mean ± SE, n = 3)?
**A.** 75.4 ± 4.42 µM

**Q.** What about the mechanism of inhibition (CYP2C9; CYP2C9, tolbutamide methyl hydroxylase) of the same molecule?
**A.** competitive inhibitor

**Q.** What about the IC50 (CYP2C9; Diclofenac 4′-hydroxylase, pooled HLM, n=3, (95% confidence interval)) of the same molecule?
**A.** 135 µM

**Q.** And the IC50 (CYP2C9; human, pooled human liver microsomes, pH 7.4, CYP2C9, HLM)?
**A.** 134 µM

**Q.** And the “free Cmax at the steady state” value ([2]; conservative, assuming free fraction value of 1%)?
**A.** ~0.80 µmol/L

**Q.** And the “free Cmax at the steady state” value ([2]; using free fraction value of 0.4% as measured)?
**A.** around 0.32 µmol/L
